In US7556796B2, “Directed complementation” (AVEO Pharmaceuticals, Inc., priority 2005, dated 2009):

Columns and labels:
[1] = system: propagated tumors from Her2-dependent inducible spontaneous breast tumors; assay: Drug response assay with propagated Her2-dependent primary breast tumors; format: in vivo, mouse; details: 15 or 30 mg/kg, three doses at 5-day intervals, one week after last dosing
Method: From each primary tumor, about 0.1 million cells/site were injected sub-cutaneously into 30 sites on immunocompromised mice, which were then fed with doxycycline water. Each mouse received two injections, one on each side of its back (subcutaneous). Thus, one primary tumor was expanded into 30 propagated tumors onto 15 mice, each of the mice developing two tumors on its back. Out of these thirty tumors, 10 tumor-bearing mice were treated with vehicle (5 parts Tween-80, 5 parts absolute ethyl alcohol, 90 parts 5% dextrose), another 10 tumor bearing-mice were treated with 15 mg/kg docetaxel (Biochemika, cat. No. 01885), and the remaining 10 tumor-bearing mice were treated with 30 mg/kg docetaxel (which was already determined to be near MTD for this drug). In total, five primary tumors were expanded to 150 tumors in 75 animals.
When the tumors reached approximately 5 mm^3 in size, the treatments were begun. The animals were given three doses with 5-day intervals. The experiment was terminated one week after the final dosing. Among propagated tumors derived from any given primary tumor, uniformity in terms of latency, growth rate and drug response was expected (intra-tumoral uniformity). In contrast, among propagated tumors derived from different primary tumors variation in terms of growth rate, latency and drug response was expected (inter-tumoral variation). […]

[2] = Maximum tolerated dose (previously determined); details: mouse, in vivo; already determined to be near MTD for this drug

With CC(=O)O[C@@]12CO[C@@H]1C[C@H](O)[C@@]1(C)C(=O)[C@H](O)C3=C(C)[C@@H](OC(=O)[C@H](O)[C@@H](NC(=O)OC(C)(C)C)c4ccccc4)C[C@@](O)([C@@H](OC(=O)c4ccccc4)[C@H]21)C3(C)C [docetaxel] the “drug response (tumor size vs vehicle)” value ([1]; propagated tumors from one of the five primary tumors) was “significant reduction in tumor growth”, the “drug response (tumor size vs vehicle)” value ([1]; propagated tumors from the remaining four of five primary tumors) was “did not show any effect” and the MTD [2] was ~30 mg/kg.
